# Data: patent publication US12714723B2, “Compositions and methods for cancer therapy” (AIM ImmunoTech Inc., priority 2018, dated 2026)
# Like-named read-outs stand apart in the source and are kept apart here. Marks after values point to notes of the source that are not given here.
# What was measured:
# pancreatic carcinoma [1] = assay: Second-line therapy following progression on FOLFIRINOX; format: in vivo, human; settings: Overall (mean)
# From the text: Overall Survival (OS) increased from 6.8 months with Gemcitabine to 11.1 months with FOLFIRINOX (p<0.001). However, the Complete Response Rate (CR) was only 0.6%.
# pancreatic carcinoma [2] = settings: second-line, cited from earlier work
# [3] = test system: locally advanced and metastatic pancreatic carcinoma; settings: first-line therapy, n = 171 per arm; cited from earlier work
# [4] = test system: human bladder tumor xenografts; assay: Human bladder tumor xenografts in nude mice; format: in vivo
# [5] = test system: renal cell carcinoma (786-0) xenografts; settings: Hubbell, 1990, cited from earlier work
# pancreatic tumors = settings: n = 8 each
# Experimental: Please note that all four cohorts (control, […] ®, anti-PD-L1, […] ®+anti-PD-L1) were studied in the same parallel experiment.
# In this experiment, sub-therapeutic doses of […] ® were administered in mouse models of pancreatic cancer.
# B16 melanoma tumors = settings: n = 10; for Number of Partial Responses (PR) / Number of Complete Responses (CR): Day 30; for Number of Complete Responses (CR): RECIST v1.1
# Experimental: Rintatolimod together with anti-PD-L1 antibodies were tested for anti-tumor activity against established subcutaneous B16 melanoma tumors in C57BL/6 mice. Mice (10 animals per group) were inoculated with 0.4×10E6 B16-F10 tumor cells in their shaved rear flanks. Seven days later (when tumors reached 0.3 to 0.5 cm in their largest diameter), mice were randomized for tumor sizes, and individually tagged and were allocated to the following six treatment groups: • No treatment (negative controls) • Rintatolimod alone 100 μg/dose 4× • Rintatolimod alone 250 μg/dose 4× • Anti-PD-L1 mAb alone • Rintatolimod 100 μg/dose 4× plus anti-PD-L1 mAb • Rintatolimod 250 μg/dose 4× plus anti-PD-L1 mAb
# Rintatolimod was injected intravenously at 100 or 250 micrograms/dose and was repeated 4 times, 5 days apart. Anti-PD-L1 mAb (clone 10F.9G2, BioXCell) was administered intraperitoneally on Days 1 and 3 after each rintatolimod injection at a 200 microgram/dose. Tumors were measured 3 times per week using a set of calipers, taking measurement of 2 opposing diameters and were recorded as tumor areas.
# Results were presented as tumor sizes for individual mice throughout the time of therapy, average tumor size in each group and survival up to Day 30 (time to euthanasia).
# ® and anti-PD-L1 antibodies were tested for anti-tumor activity against established subcutaneous B16 melanoma tumors in C57BL/6 mice. Briefly, mice (10 animals per group) were inoculated with 0.4×10E6 (i.e., 400,000) B16-F10 tumor cells in their shaved rear flanks. Seven days later, mice were randomized to six treatment groups as follows: (Group 1) No treatment (negative controls); (Group 2) […] ® alone 100 μg/dose 4×; (Group 3) […] ® alone 250 μg/dose 4×; (Group 4) Anti-PD-L1 mAb alone; (Group 5) […] ® 100 μg/dose 4× plus anti-PD-L1 mAb; (Group 6) […] ® 250 μg/dose 4× plus anti-PD-L1 mAb. mAb refers to monoclonal antibody.
# ® was injected IV at 100 or 250 μg/dose 4 times, 5 days apart. Anti-PD-L1 mAb was administered IP on Days 1 and 3 after each […] ® dose at 200 μg/dose. Tumors were measured 3 times per week using calipers, measuring 2 opposing diameters. […] Results were presented as tumor sizes for individual mice throughout time of therapy up to Day 30.
# [6] = test system: TME of metastatic colorectal carcinoma; settings: 9 patients vs. historical controls
# From the text: Colorectal carcinoma was used as a GI model for pancreatic carcinoma in order to obtain biopsy specimens of the TME. We used […]® to determine if there is improvement in the Teff/Treg ratio in the TME secondary to the […]® induction of desirable chemokines, such as CXCL 10 (Teff-attractant), in the TME, while decreasing the unfavorable chemokines, such as CCL22 (C-C Motif Chemokine Ligand 22; Treg-attractant), thereby increasing the Teff/Treg ratio in the TME.
# See, Example Section below.
# [7] = test system: renal cell carcinoma (786-0) xenografts; assay: Renal cell carcinoma (786-0) xenografts in nude mice; format: in vivo; settings: for tumor growth: FIG. 7, vs untreated controls
molecule,measurement,setting,value
Nc1ccn([C@@H]2O[C@H](CO)[C@@H](O)C2(F)F)c(=O)n1 [Gemcitabine],Partial Response Rates (PR),pancreatic carcinoma [1],6.4%
same,Complete Response Rates (CR),pancreatic carcinoma [1]; weighted average,0%*
same,Progression Free Survival (PFS),pancreatic carcinoma [1]; weighted average,2.24* months
same,Overall Survival (OS),pancreatic carcinoma [1]; weighted average based on n in each study,4.05* months
same,Progression Free Survival (PFS),"pancreatic carcinoma [2]; Gilabert, et al. 2017, n = 72",2.5 months
same,Complete Response Rates (CR),"pancreatic carcinoma [2]; Gilabert, et al. 2017",0%
same,Partial Response Rates (PR),"pancreatic carcinoma [2]; Gilabert, et al. 2017",5.5%
same,Overall Survival (OS),"pancreatic carcinoma [2]; Viaud, et al. 2017, n = 96",3.7 months
same,Progression Free Survival (PFS),"pancreatic carcinoma [2]; Viaud, et al. 2017, n = 96",2.1 months
same,Complete Response Rates (CR),"pancreatic carcinoma [2]; Viaud, et al. 2017",0%
same,Partial Response Rates (PR),"pancreatic carcinoma [2]; Viaud, et al. 2017",8.3%
same,Overall Survival (OS),"pancreatic carcinoma [2]; da Rocha, et al. 2015, n = 20",5.7 months
same,Progression Free Survival (PFS),"pancreatic carcinoma [2]; da Rocha, et al. 2015, n = 20",2.0 months
same,Complete Response Rates (CR),"pancreatic carcinoma [2]; da Rocha, et al. 2015",0%
same,Partial Response Rates (PR),"pancreatic carcinoma [2]; da Rocha, et al. 2015",0%
same,"Complete Response Rates (CR), %",[3],0(0) %
same,Overall Survival (OS),[3],6.8 months
same,"Partial Response Rates (PR), %",[3],9.4%
same,Progression Free Survival (PFS),[3],3.3 months
polyriboinosinic:polyribocytidylic(12:1)uridylic acid,growth of human bladder tumor xenografts,[4],significantly inhibited
same,tumor growth inhibition,[5]; p<0.001,statistically significant tumor growth inhibition
same,survival,[5]; p<0.002,increased survival
same,Time to Progression Median,"pancreatic tumors; sub-therapeutic doses, control 33",33 days
same,Increased Time to Progression,pancreatic tumors; versus control,0 days
same,Total # Tumor Responses CR + PR,B16 melanoma tumors; rintatolimod 100 μg/dose 4×,0
same,Number of Partial Responses (PR),B16 melanoma tumors; rintatolimod 100 μg/dose 4×,0
same,Number of Complete Responses (CR),B16 melanoma tumors; rintatolimod 100 μg/dose 4×,0
same,Total # Tumor Responses CR + PR,B16 melanoma tumors; rintatolimod 250 μg/dose 4×,0
same,Number of Partial Responses (PR),B16 melanoma tumors; rintatolimod 250 μg/dose 4×,0
same,Number of Complete Responses (CR),B16 melanoma tumors; rintatolimod 250 μg/dose 4×,0
same,ratio of Teff/Treg markers in the TME,[6],improved ratios
same,survival of nude mice,"[7]; FIG. 8, 100% death rate for untreated controls",100%
same,tumor growth,"[7]; monotherapy, listed as rintatolimod",tumor regression was observed in each mouse
same,tumor growth,"[7]; monotherapy, listed as tdsRNA",growth inhibition
same,mice free of the residual tumor,"[7]; monotherapy, 100% of the control group had died",90%
